Reference: US20100129370A1, “Trefoil Factors and Methods of Treating Proliferation Disorders Using Same” (priority 2004, published 2010)

Assays:
Assay type in all cases: cell-based, human
[1] = system: TFF3; assay: TFF3 transcript levels (RT-PCR) in MCF7 cells treated with E2 or TAM; details: 10 nM E2 or 1 μM TAM, 24 hours, FIG. 7A
Description: RT-PCR was performed in a final volume of […] containing 0.2 μg of mRNA template, 0.6 μM primers, […] of enzyme mix, 400 μM of each dNTP, 10 reaction buffer, and 10 Q-Solution by use of the Qiagen One-step RT-PCR kit. RNA template was reverse-transcribed into cDNA for 30 min at 50° C.; Hotstart TaqDNA polymerase was activated by heating for 15 min at 95° C.; the denatured cDNA templates were amplified by the following cycles: 94° C./30 s, 55° C./30 s, and 72° C./60 s. A final extension was performed for 10 min at 72° C. In order to compare the PCR products semiquantitatively, 15-40 cycles of PCR (annealing temperature 55° C.) were performed to determine the linearity of the PCR amplification, and the amplified β-actin cDNA served as an internal control for cDNA quantity and quality. All RNA samples were treated with DNase I to avoid genomic DNA contaminations.
(§1) It was of interest to determine if the expression of TFF3 is related to estrogen receptor status. MCF7 cells were cultured in phenol red free RPMI 1640 containing 10% dextran coated charcoal stripped fetal bovine serum in a 6 well plate for 24 hours. Then the cells were changed to treatment media containing 10 nM E2 or 1 μM TAM and cultured for 24 hours in the same. Untreated cells cultured in serum free media acted as controls.

[2] = system: TFF3 promoter; assay: TFF3 promoter activity in MCF-7 cells treated with E2 or TAM; details: 24 hours treatment, FIG. 7B, p<0.05
Description: as §1

[3] = system: TFF1; assay: TFF1 transcript levels (RT-PCR) in MCF7 cells treated with E2 or tamoxifen; details: 10 nM E2 or 1 μM TAM, 24 hours, FIG. 9A
Description: (§2) MCF7 cells produce endogenous levels of TFF1. MCF7 cells were cultured in phenol red free RPMI 1640 containing 10% dextran coated charcoal stripped fetal bovine serum in a 6 well plate for 24 hours. Then the cells were changed to treatment media containing 10 nM E2 or 1 μM TAM and cultured for 24 hours in the same. Untreated cells cultured in serum free media acted as controls.

[4] = system: TFF1 promoter; assay: TFF1 promoter activity in MCF7 cells treated with E2 or TAM; details: 24 hours treatment, FIG. 9B
Description: as §2

[5] = system: MCF7-VECTOR and MCF7-TFF3 cells; assay: Total cell number assay in estrogen-depleted media with estrogen supplement; details: estrogen supplemented to estrogen-depleted media, FIG. 10A
Description: (§3) MCF7-VECTOR and MCF7-TFF3 cells were cultured in phenol red free RPMI 1640 media with 10% dextran coated charcoal stripped fetal bovine serum.

[6] = system: MCF-TFF3 cells; assay: Soft agar colony formation in estrogen-depleted media with estrogen added; details: estrogen added to estrogen-depleted media, MCF-TFF3, FIG. 10B
Description: as §3

[7] = system: MCF-7-TamR cells; assay: Cell morphology assay, MCF-7-TamR cells; details: single agent, 48 h, FIG. 19
Description: Tamoxifen resistant MCF-7-Tam^R cells were plated at a concentration of 5×10^3 cells/well in 96-well plates in 100 μl of phenol red free RPMI 1640 medium containing dextran coated charcoal stripped 10% FBS. The plates were incubated at 37° C. for 24 h to allow the cells to reattach and re-equilibrate. Without removing any medium, anti-TFF3 antibody and/or tamoxifen were then added at twice the final concentration in a volume of 100 μl of the culture media. After 48 h images of cells were taken at 10× magnification under phase contrast microscope (Olympus IX70).
Cells were plated in phenol red free RPMI 1640 medium containing dextran coated charcoal stripped 10% FBS at 5×10^3 cells/100 μl/well in 96-well plates. After 24 hours incubation, anti-TFF3 antibody and/or tamoxifen (TAM) were then added at twice the final concentration in a volume of 100 μl. The cells were then taken photos using Olympus phase contrast microscope under 10× magnification. CK-09 is the pre-immune sera for the rabbit polyclonal antibodies of human TFF3 (anti-09).

[8] = system: CEACAM6 gene; assay: CEACAM6 luciferase reporter assay in MCF-7 cells; details: MCF-7 co-transfected with expression plasmid, 36 hours post transfection

Molecule	transcript levels of TFF3 [1]	TFF3 promoter activity [2]	transcript levels of TFF1 [3]	TFF1 promoter activity [4]	total cell number [5]	soft agar colony numbers [6]	cell morphology / cell death [7]	stimulation of CEACAM6 expression compared with control vector [8]
C[C@]12CC[C@@H]3c4ccc(O)cc4CC[C@H]3[C@@H]1CC[C@@H]2O [E2, estradiol]	very high increased transcript levels	increase	very significant increase	increase	brings back the total cell number to the control cells	further increases the colony numbers significantly	–	–
CC/C(=C(\c1ccccc1)c1ccc(OCCN(C)C)cc1)c1ccccc1 [TAM, tamoxifen]	significantly but not as high transcript levels	increase	very significant increase	increase	–	–	look healthy and similar to untreated control	–
TFF3: wild type human TFF3 expressed from plasmid in MCF-7 cells (EEYVGLSANQCAVPAKDRVDCGYPHVTPKECNNRGCCFDSRIPGVPWCFKPLQEAECTF)	–	–	–	–	–	–	–	two fold
